Broadly, the IC50 is the concentration that inhibits the measured activity by half.

Structures are written as SMILES.

For this assay, the target named is HDM2 protein (Homo sapiens, UniProt Q00987). Put plainly: fluorescence polarization screening assay (FP IC50). In kind it is binding. The conditions noted are these: class symbols. As to the method:
The compounds were evaluated to determine activity at the HDM2 protein by known methods such as the fluorescence polarization screening assay that measures the inhibitory concentration that achieves 50% of maximal activity (FP IC50) and the dissociation constant for inhibitor binding (FP Ki). [Zhang et al., J. Analytical Biochemistry 331: 138-146 (2004)].
(Polarisation of emitted light reports the rotation of a fluorescent probe.)

Sequence of HDM2 protein (Q00987 whole entry): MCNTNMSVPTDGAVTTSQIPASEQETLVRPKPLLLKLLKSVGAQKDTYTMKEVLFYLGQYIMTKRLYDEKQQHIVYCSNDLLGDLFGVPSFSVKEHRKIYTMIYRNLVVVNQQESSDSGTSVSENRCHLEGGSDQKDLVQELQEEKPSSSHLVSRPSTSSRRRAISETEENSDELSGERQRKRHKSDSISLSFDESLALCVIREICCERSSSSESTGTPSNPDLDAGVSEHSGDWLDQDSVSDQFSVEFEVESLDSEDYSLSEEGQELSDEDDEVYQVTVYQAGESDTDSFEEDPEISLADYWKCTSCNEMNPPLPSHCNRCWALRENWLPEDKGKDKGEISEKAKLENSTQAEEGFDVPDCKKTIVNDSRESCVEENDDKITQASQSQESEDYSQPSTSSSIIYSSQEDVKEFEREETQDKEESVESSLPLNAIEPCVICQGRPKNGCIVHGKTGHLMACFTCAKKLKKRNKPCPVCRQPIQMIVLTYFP

In turn, `CN1CCN(CC[C@H]2N(C(=O)c3ncccc3C(F)(F)F)CCC[C@@]2(Oc2csc(C(F)(F)F)c2)C(=O)N2CCc3cc(Cl)ccc3C2)CC1` [Compound A115, 6-chloro-2-{[(2R,3S)-2-[2-(4-methylpiperazin-1-yl)ethyl]-1-{[3-(trifluoromethyl)pyridin-2-yl]carbonyl}-3-{[5-(trifluoromethyl)thiophen-3-yl]oxy}piperidin-3-yl]carbonyl}-1,2,3,4-tetrahydroisoquinoline] displayed an IC50 of 1 to 100 nM.

The compound `O=C(c1ncccc1C(F)(F)F)N1CCC[C@@](Oc2csc(C(F)(F)F)c2)(C(=O)N2CCc3cc(Cl)ccc3C2)[C@H]1CCN1CCN(CC2CC2)CC1` [Compound A116, 6-chloro-2-{[(2R,3S)-2-{2-[4-(cyclopropylmethyl)piperazin-1-yl]ethyl}-1-{[3-(trifluoromethyl)pyridin-2-yl]carbonyl}-3-{[5-(trifluoromethyl)thiophen-3-yl]oxy}piperidin-3-yl]carbonyl}-1,2,3,4-tetrahydroisoquinoline] returned an IC50 of 1 to 100 nM.

`COCCN(C)CC[C@H]1N(C(=O)c2ncccc2C(F)(F)F)CCC[C@@]1(Oc1csc(C(F)(F)F)c1)C(=O)N1CCc2cc(Cl)ccc2C1` [Compound A117, 2-[(2R,3S)-3-[(6-chloro-3,4-dihydroisoquinolin-2(1H)-yl)carbonyl]-1-{[3-(trifluoromethyl)pyridin-2-yl]carbonyl}-3-{[5-(trifluoromethyl)thiophen-3-yl]oxy}piperidin-2-yl]-N-(2-methoxyethyl)-N-methylethanamine] gave an IC50 of 1 to 100 nM.

`COCCN1CCN(CC[C@H]2N(C(=O)c3ncccc3C(F)(F)F)CCC[C@@]2(Oc2csc(C(F)(F)F)c2)C(=O)N2CCc3cc(Cl)ccc3C2)CC1` [Compound A118, 6-chloro-2-{[(2R,3S)-2-{2-[4-(2-methoxyethyl)piperazin-1-yl]ethyl}-1-{[3-(trifluoromethyl)pyridin-2-yl]carbonyl}-3-{[5-(trifluoromethyl)thiophen-3-yl]oxy}piperidin-3-yl]carbonyl}-1,2,3,4-tetrahydroisoquinoline] displayed an IC50 of 1 to 100 nM.

`CC(C)(C(=O)O)C1CCN(CC[C@H]2N(C(=O)c3ncccc3C(F)(F)F)CCC[C@@]2(Oc2csc(C(F)(F)F)c2)C(=O)N2CCc3cc(Cl)ccc3C2)CC1` [Compound A119, 2-(1-{2-[(2R,3S)-3-[(6-chloro-3,4-dihydroisoquinolin-2(1H)-yl)carbonyl]-1-{[3-(trifluoromethyl)pyridin-2-yl]carbonyl}-3-{[5-(trifluoromethyl)thiophen-3-yl]oxy}piperidin-2-yl]ethyl}piperidin-4-yl)-2-methylpropanoic acid] showed an IC50 of 1 to 100 nM.

For `CCC[C@H]1N(C(=O)c2cnccc2C(F)(F)F)CCC[C@@]1(Oc1csc(C(F)(F)F)c1)C(=O)N1Cc2ccccc2C[C@H]1CO` [Compound A120, [(3S)-2-{[(2R,3S)-2-propyl-1-{[4-(trifluoromethyl)pyridin-3-yl]carbonyl}-3-{[5-(trifluoromethyl)thiophen-3-yl]oxy}piperidin-3-yl]carbonyl}-1,2,3,4-tetrahydroisoquinolin-3-yl]methanol], the IC50 lay within 101 to 20000 nM.

Regarding `CCC[C@H]1N(C(=O)c2cnccc2C(F)(F)F)CCC[C@@]1(Oc1csc(C(F)(F)F)c1)C(=O)N1CCc2cccc(O)c2C1` [Compound A121, 2-{[(2R,3S)-2-propyl-1-{[4-(trifluoromethyl)pyridin-3-yl]carbonyl}-3-{[5-(trifluoromethyl)thiophen-3-yl]oxy}piperidin-3-yl]carbonyl}-1,2,3,4-tetrahydroisoquinolin-8-ol], the IC50 fell in the range of 101 to 20000 nM.

For `CCC[C@H]1N(C(=O)c2cnccc2C(F)(F)F)CCC[C@@]1(Oc1csc(C(F)(F)F)c1)C(=O)N1CCc2ccccc2C1CC(=O)O` (stereo partly drawn) [Compound A122, (2-{[(2R,3S)-2-propyl-1-{[4-(trifluoromethyl)pyridin-3-yl]carbonyl}-3-{[5-(trifluoromethyl)thiophen-3-yl]oxy}piperidin-3-yl]carbonyl}-1,2,3,4-tetrahydroisoquinolin-1-yl)acetic acid], the IC50 lay within 1 to 100 nM.

Turning to `CCC[C@H]1N(C(=O)c2ncccc2C(F)(F)F)CCC[C@@]1(Oc1csc(C(F)(F)F)c1)C(=O)N1Cc2ccc(F)cc2C[C@@H]1C(=O)O` [Compound A123, (3R)-6-fluoro-2-{[(2R,3S)-2-propyl-1-{[3-(trifluoromethyl)pyridin-2-yl]carbonyl}-3-{[5-(trifluoromethyl)thiophen-3-yl]oxy}piperidin-3-yl]carbonyl}-1,2,3,4-tetrahydroisoquinoline-3-carboxylic acid], the IC50 lay within 1 to 100 nM.

`CCC[C@H]1N(C(=O)c2ncccc2C(F)(F)F)CCC[C@@]1(Oc1csc(C(F)(F)F)c1)C(=O)N1Cc2ccc(F)cc2C[C@@H]1CCC(=O)O` [Compound A124, 3-[(3S)-6-fluoro-2-{[(2R,3S)-2-propyl-1-{[3-(trifluoromethyl)pyridin-2-yl]carbonyl}-3-{[5-(trifluoromethyl)thiophen-3-yl]oxy}piperidin-3-yl]carbonyl}-1,2,3,4-tetrahydroisoquinolin-3-yl]propanoic acid] showed an IC50 of 1 to 100 nM.

Take `CCC[C@H]1N(C(=O)c2ncccc2C(F)(F)F)CCC[C@@]1(Oc1csc(C(F)(F)F)c1)C(=O)N1Cc2ccc(F)cc2C[C@H]1C(=O)O` [Compound A125, (3S)-6-fluoro-2-{[(2R,3S)-2-propyl-1-{[3-(trifluoromethyl)pyridin-2-yl]carbonyl}-3-{[5-(trifluoromethyl)thiophen-3-yl]oxy}piperidin-3-yl]carbonyl}-1,2,3,4-tetrahydroisoquinoline-3-carboxylic acid]: the IC50 lay within 1 to 100 nM.

The compound `CCC[C@H]1N(C(=O)c2ncccc2C(F)(F)F)CCC[C@@]1(Oc1csc(C(F)(F)F)c1)C(=O)N1Cc2ccc(F)cc2C[C@H]1CCC(=O)O` [Compound A127, 3-[(3R)-6-fluoro-2-{[(2R,3S)-2-propyl-1-{[3-(trifluoromethyl)pyridin-2-yl]carbonyl}-3-{[5-(trifluoromethyl)thiophen-3-yl]oxy}piperidin-3-yl]carbonyl}-1,2,3,4-tetrahydroisoquinolin-3-yl]propanoic acid] yielded an IC50 of 1 to 100 nM.

`CCC[C@H]1N(C(=O)c2ncccc2C(F)(F)F)CCC[C@@]1(Oc1csc(C(F)(F)F)c1)C(=O)N1Cc2cc(F)ccc2C[C@H]1C(=O)O` [Compound A128, (3S)-7-fluoro-2-{[(2R,3S)-2-propyl-1-{[3-(trifluoromethyl)pyridin-2-yl]carbonyl}-3-{[5-(trifluoromethyl)thiophen-3-yl]oxy}piperidin-3-yl]carbonyl}-1,2,3,4-tetrahydroisoquinoline-3-carboxylic acid] showed an IC50 of 1 to 100 nM.

Consider `CCC[C@H]1N(C(=O)c2ncccc2C(F)(F)F)CCC[C@@]1(Oc1csc(C(F)(F)F)c1)C(=O)N1Cc2ccc(Cl)cc2C[C@@H]1C(=O)O` [Compound A129, (3R)-6-chloro-2-{[(2R,3S)-2-propyl-1-{[3-(trifluoromethyl)pyridin-2-yl]carbonyl}-3-{[5-(trifluoromethyl)thiophen-3-yl]oxy}piperidin-3-yl]carbonyl}-1,2,3,4-tetrahydroisoquinoline-3-carboxylic acid], for which the IC50 lay in the range of 1 to 100 nM.

Compound `CCC[C@H]1N(C(=O)c2ncccc2C(F)(F)F)CCC[C@@]1(Oc1csc(C(F)(F)F)c1)C(=O)N1Cc2ccc(Cl)cc2C[C@@H]1CCC(=O)O` [Compound A130, 3-[(3S)-6-chloro-2-{[(2R,3S)-2-propyl-1-{[3-(trifluoromethyl)pyridin-2-yl]carbonyl}-3-{[5-(trifluoromethyl)thiophen-3-yl]oxy}piperidin-3-yl]carbonyl}-1,2,3,4-tetrahydroisoquinolin-3-yl]propanoic acid] yielded an IC50 of 1 to 100 nM.

For `CCC[C@H]1N(C(=O)c2ncccc2C(F)(F)F)CCC[C@@]1(Oc1csc(C(F)(F)F)c1)C(=O)N1Cc2ccc(F)cc2C[C@@H]1CCCCC(=O)O` [Compound A131, 5-[(3S)-6-fluoro-2-{[(2R,3S)-2-propyl-1-{[3-(trifluoromethyl)pyridin-2-yl]carbonyl}-3-{[5-(trifluoromethyl)thiophen-3-yl]oxy}piperidin-3-yl]carbonyl}-1,2,3,4-tetrahydroisoquinolin-3-yl]pentanoic acid], the IC50 fell in the range of 1 to 100 nM.

`CCC[C@H]1N(C(=O)c2ncccc2C(F)(F)F)CCC[C@@]1(Oc1csc(C(F)(F)F)c1)C(=O)N1Cc2cc(F)ccc2C[C@@H]1CCC(=O)O` [Compound A132, 3-[(3S)-7-fluoro-2-{[(2R,3S)-2-propyl-1-{[3-(trifluoromethyl)pyridin-2-yl]carbonyl}-3-{[5-(trifluoromethyl)thiophen-3-yl]oxy}piperidin-3-yl]carbonyl}-1,2,3,4-tetrahydroisoquinolin-3-yl]propanoic acid] registered an IC50 of 1 to 100 nM.

In the case of `CCC[C@H]1N(C(=O)c2ncccc2C(F)(F)F)CCC[C@@]1(Oc1csc(C(F)(F)F)c1)C(=O)N1Cc2ccc(Cl)cc2C[C@@H]1C(C)CC(=O)O` (stereo partly drawn) [Compound A133, 3-[(3R)-6-chloro-2-{[(2R,3S)-2-propyl-1-{[3-(trifluoromethyl)pyridin-2-yl]carbonyl}-3-{[5-(trifluoromethyl)thiophen-3-yl]oxy}piperidin-3-yl]carbonyl}-1,2,3,4-tetrahydroisoquinolin-3-yl]butanoic acid], the IC50 was in the range of 1 to 100 nM.

Compound `CCC[C@H]1N(C(=O)c2ncccc2C(F)(F)F)CCC[C@@]1(Oc1csc(C(F)(F)F)c1)C(=O)N1Cc2ccc(Br)cc2C[C@@H]1C(=O)O` [Compound A134, (3R)-6-bromo-2-{[(2R,3S)-2-propyl-1-{[3-(trifluoromethyl)pyridin-2-yl]carbonyl}-3-{[5-(trifluoromethyl)thiophen-3-yl]oxy}piperidin-3-yl]carbonyl}-1,2,3,4-tetrahydroisoquinoline-3-carboxylic acid] yielded an IC50 of 1 to 100 nM.

(Values after patent US9062071B2, “Substituted piperidines as HDM2 inhibitors” (Merck Sharp & Dohme Corp, priority 2011, dated 2015).)
